Reference: patent US20250214993A1, “AROMATIC RING COMPOUND AND USE THEREOF” (SHANGHAI SHIJIANG BIOTECHNOLOGY CO., LTD, priority 2022, published 2025)

The compounds below were run on Con-NCI-H82 cell (assay: Cell viability (Promega CellTiter-Glo, intracellular ATP), IC50 on Con-NCI-H82 cell). Settings: Homo sapiens; normal untreated NCI-H82 cell (control).
Assay type: cell-based
Source text: (§1) The expression of NNMT protein in NCI-H82 cell was overexpressed by inserting the NNMT gene into NCI-H82 cell using a viral vector, and the NNMT protein-overexpressing NCI-H82 cell (ov-NNMT NCI-H82 cell) was obtained. The normal and untreated NCI-H82 cell (Con-NCI-H82 cell) was used as control. The expressing content of NNMT protein in the ov-NNMT NCI-H82 cell and Con-NCI-H82 cell was detected using Western Blot assay (as shown in FIG. 1), it could be seen from FIG. 1 that the NNMT protein was overexpressed in the ov-NNMT NCI-H82 cell compared with the expression level of NNMT protein in the Con-NCI-H82 cell.
(§2) The cell viability was detected using the Promega CellTiter-Glo kit which reflected cell viability by measuring intracellular ATP content. The Con-NCI-H82 cell and ov-NNMT NCI-H82 cell was cultured in 10% fetal bovine serum-containing RPMI1640 medium (+P/S).

Row | Structure (SMILES) | IC50 [µM]
1 | Cc1cn(CC(=O)c2cccc(OC(F)(F)F)c2)c2cc[n+](Cc3ccccc3)cc12 [AB27457] | 0.417
2 | Cc1cn(CC(=O)c2cccc(C(F)(F)F)c2)c2cc[n+](Cc3ccccc3)cc12 [AB27458] | 0.748
3 | Cc1cn(C2CCc3ccc(F)cc3C2=O)c2cc[n+](C(C)c3ccccc3)cc12 (centres unmarked) [AB27459] | 0.086
4 | Cc1cn(CC(=O)c2ccc(C(F)(F)F)cc2)c2cc[n+](Cc3ccccc3)cc12 [AB27463] | 2.06
5 | Cc1cn(Cc2ccccc2)c2cc[n+](C3CCc4ccc(F)cc4C3=O)cc12 (centres unmarked) [AB27470] | 0.112
6 | CC(c1ccccc1)n1cc2cc[n+](C3CCc4ccc(Cl)cc4C3=O)cc2c1 (centres unmarked) [AB27481] | 0.228
7 | Cc1c(Cl)c2c[n+](Cc3ccccc3)ccc2n1CC(=O)c1cccc(OC(F)(F)F)c1 [AB27483] | 1.16
8 | O=C(Cn1c(Cl)cc2c[n+](Cc3ccccc3)ccc21)c1cccc(OC(F)(F)F)c1 [AB27486] | 0.034
9 | O=C(Cn1c(Cl)cc2c[n+](Cc3ccccc3)ccc21)c1cccc(C(F)(F)F)c1 [AB27487] | 0.031
10 | O=C(Cn1c(Br)cc2c[n+](Cc3ccccc3)ccc21)c1cccc(OC(F)(F)F)c1 [AB27489] | 0.023
11 | Cc1c(C)n(CC(=O)c2cccc(OC(F)(F)F)c2)c2cc[n+](Cc3ccccc3)cc12 [AB27492] | 0.174
12 | O=C(Cn1ncc2c[n+](Cc3ccccc3)ccc21)c1cccc(OC(F)(F)F)c1 [AB27498] | 2.18
13 | O=C1c2cc(Cl)ccc2CCC1n1ncc2c[n+](Cc3ccccc3)ccc21 (centres unmarked) [AB27500] | 0.122
14 | O=C1c2cc(Cl)ccc2CCC1n1cnc2c[n+](Cc3ccccc3)ccc21 (centres unmarked) [AB31704] | 0.264
15 | O=C1c2cc(F)ccc2CCC1n1ncc2c[n+](Cc3ccccc3)ccc21 (centres unmarked) [AB31773] | 0.11
16 | O=C1c2cc(C(F)(F)F)ccc2CCC1n1ncc2c[n+](Cc3ccccc3)ccc21 (centres unmarked) [AB31774] | 0.97
17 | O=C1c2cc(OC(F)(F)F)ccc2CCC1n1ncc2c[n+](Cc3ccccc3)ccc21 (centres unmarked) [AB31775] | 0.124
18 | Cc1ccc2c(c1)CCC(n1ncc3c[n+](Cc4ccccc4)ccc31)C2=O (centres unmarked) [AB31777] | 0.128
19 | Nc1cc[n+](CC(=O)c2ccccc2)cc1 [AB36527] | 39.7
20 | Nc1cc[n+](CC(=O)c2ccc(OC(F)(F)F)cc2)cc1 [AB36528] | 19.5

What follows are compounds tested on ov-NNMT NCI-H82 cell (assay: Cell viability (Promega CellTiter-Glo, intracellular ATP), IC50 on NNMT-overexpressing NCI-H82 cell). Settings: Homo sapiens; NCI-H82 cell overexpressing NNMT protein.
Assay type: cell-based
Source text: as §1, §2

Row | IC50 [µM] | Structure (SMILES)
21 | 6.61 | Cc1cn(CC(=O)c2cccc(OC(F)(F)F)c2)c2cc[n+](Cc3ccccc3)cc12 [AB27457]
22 | 7.72 | Cc1cn(CC(=O)c2cccc(C(F)(F)F)c2)c2cc[n+](Cc3ccccc3)cc12 [AB27458]
23 | 1.24 | Cc1cn(C2CCc3ccc(F)cc3C2=O)c2cc[n+](C(C)c3ccccc3)cc12 (centres unmarked) [AB27459]
24 | 10.6 | Cc1cn(CC(=O)c2ccc(C(F)(F)F)cc2)c2cc[n+](Cc3ccccc3)cc12 [AB27463]
25 | 2.43 | Cc1cn(Cc2ccccc2)c2cc[n+](C3CCc4ccc(F)cc4C3=O)cc12 (centres unmarked) [AB27470]
26 | 2.73 | CC(c1ccccc1)n1cc2cc[n+](C3CCc4ccc(Cl)cc4C3=O)cc2c1 (centres unmarked) [AB27481]
27 | 7.24 | Cc1c(Cl)c2c[n+](Cc3ccccc3)ccc2n1CC(=O)c1cccc(OC(F)(F)F)c1 [AB27483]
28 | 0.489 | O=C(Cn1c(Cl)cc2c[n+](Cc3ccccc3)ccc21)c1cccc(OC(F)(F)F)c1 [AB27486]
29 | 0.496 | O=C(Cn1c(Cl)cc2c[n+](Cc3ccccc3)ccc21)c1cccc(C(F)(F)F)c1 [AB27487]
30 | 0.287 | O=C(Cn1c(Br)cc2c[n+](Cc3ccccc3)ccc21)c1cccc(OC(F)(F)F)c1 [AB27489]
31 | 1.49 | Cc1c(C)n(CC(=O)c2cccc(OC(F)(F)F)c2)c2cc[n+](Cc3ccccc3)cc12 [AB27492]
32 | 11 | O=C(Cn1ncc2c[n+](Cc3ccccc3)ccc21)c1cccc(OC(F)(F)F)c1 [AB27498]
33 | 0.904 | O=C1c2cc(Cl)ccc2CCC1n1ncc2c[n+](Cc3ccccc3)ccc21 (centres unmarked) [AB27500]
34 | 3.19 | O=C1c2cc(Cl)ccc2CCC1n1cnc2c[n+](Cc3ccccc3)ccc21 (centres unmarked) [AB31704]
35 | 1.81 | O=C1c2cc(F)ccc2CCC1n1ncc2c[n+](Cc3ccccc3)ccc21 (centres unmarked) [AB31773]
36 | 7.92 | O=C1c2cc(C(F)(F)F)ccc2CCC1n1ncc2c[n+](Cc3ccccc3)ccc21 (centres unmarked) [AB31774]
37 | 2.09 | O=C1c2cc(OC(F)(F)F)ccc2CCC1n1ncc2c[n+](Cc3ccccc3)ccc21 (centres unmarked) [AB31775]
38 | 1.99 | Cc1ccc2c(c1)CCC(n1ncc3c[n+](Cc4ccccc4)ccc31)C2=O (centres unmarked) [AB31777]
39 | 36.5 | Nc1cc[n+](CC(=O)c2ccccc2)cc1 [AB36527]
40 | 19 | Nc1cc[n+](CC(=O)c2ccc(OC(F)(F)F)cc2)cc1 [AB36528]

Each compound was assayed on mPTP-active Daoy cell (assay: Cell viability (Promega CellTiter-Glo), IC50 on mPTP-active Daoy cell). Settings: Homo sapiens; Daoy cell transfected with empty virus vector.
Assay type: cell-based

Row | Structure (SMILES) | IC50 [µM]
41 | Cc1cn(CC(=O)c2cccc(OC(F)(F)F)c2)c2cc[n+](Cc3ccccc3)cc12 [AB27457] | 8.61
42 | Cc1cn(CC(=O)c2cccc(C(F)(F)F)c2)c2cc[n+](Cc3ccccc3)cc12 [AB27458] | 10.3
43 | Cc1cn(C2CCc3ccc(F)cc3C2=O)c2cc[n+](C(C)c3ccccc3)cc12 (centres unmarked) [AB27459] | 2.43
44 | Cc1cn(CC(=O)c2ccc(C(F)(F)F)cc2)c2cc[n+](Cc3ccccc3)cc12 [AB27463] | 10.6
45 | Cc1cn(Cc2ccccc2)c2cc[n+](C3CCc4ccc(F)cc4C3=O)cc12 (centres unmarked) [AB27470] | 3.23
46 | CC(c1ccccc1)n1cc2cc[n+](C3CCc4ccc(Cl)cc4C3=O)cc2c1 (centres unmarked) [AB27481] | 2.72
47 | Cc1c(Cl)c2c[n+](Cc3ccccc3)ccc2n1CC(=O)c1cccc(OC(F)(F)F)c1 [AB27483] | 8.24
48 | O=C(Cn1c(Cl)cc2c[n+](Cc3ccccc3)ccc21)c1cccc(OC(F)(F)F)c1 [AB27486] | 0.58
49 | O=C(Cn1c(Cl)cc2c[n+](Cc3ccccc3)ccc21)c1cccc(C(F)(F)F)c1 [AB27487] | 0.57
50 | O=C(Cn1c(Br)cc2c[n+](Cc3ccccc3)ccc21)c1cccc(OC(F)(F)F)c1 [AB27489] | 0.37
51 | Cc1c(C)n(CC(=O)c2cccc(OC(F)(F)F)c2)c2cc[n+](Cc3ccccc3)cc12 [AB27492] | 3.75
52 | O=C(Cn1ncc2c[n+](Cc3ccccc3)ccc21)c1cccc(OC(F)(F)F)c1 [AB27498] | 9.89
53 | O=C1c2cc(Cl)ccc2CCC1n1ncc2c[n+](Cc3ccccc3)ccc21 (centres unmarked) [AB27500] | 3.18
54 | O=C1c2cc(Cl)ccc2CCC1n1cnc2c[n+](Cc3ccccc3)ccc21 (centres unmarked) [AB31704] | 3.69
55 | O=C1c2cc(F)ccc2CCC1n1ncc2c[n+](Cc3ccccc3)ccc21 (centres unmarked) [AB31773] | 2.98
56 | O=C1c2cc(C(F)(F)F)ccc2CCC1n1ncc2c[n+](Cc3ccccc3)ccc21 (centres unmarked) [AB31774] | 9.92
57 | O=C1c2cc(OC(F)(F)F)ccc2CCC1n1ncc2c[n+](Cc3ccccc3)ccc21 (centres unmarked) [AB31775] | 5.38
58 | Cc1ccc2c(c1)CCC(n1ncc3c[n+](Cc4ccccc4)ccc31)C2=O (centres unmarked) [AB31777] | 6.99
59 | Nc1cc[n+](CC(=O)c2ccccc2)cc1 [AB36527] | 39.1
60 | Nc1cc[n+](CC(=O)c2ccc(OC(F)(F)F)cc2)cc1 [AB36528] | 15.7

The compounds below were run on mPTP-inactive Daoy cell (assay: Cell viability (Promega CellTiter-Glo), IC50 on mPTP-inactive Daoy cell (PPIF shRNA)). Settings: Homo sapiens; Daoy cell transfected with PPIF shRNA vector.
Assay type: cell-based

Row | Structure (SMILES) | IC50 [µM]
61 | Cc1cn(CC(=O)c2cccc(OC(F)(F)F)c2)c2cc[n+](Cc3ccccc3)cc12 [AB27457] | 2.16
62 | Cc1cn(CC(=O)c2cccc(C(F)(F)F)c2)c2cc[n+](Cc3ccccc3)cc12 [AB27458] | 3.01
63 | Cc1cn(C2CCc3ccc(F)cc3C2=O)c2cc[n+](C(C)c3ccccc3)cc12 (centres unmarked) [AB27459] | 0.84
64 | Cc1cn(CC(=O)c2ccc(C(F)(F)F)cc2)c2cc[n+](Cc3ccccc3)cc12 [AB27463] | 4.76
65 | Cc1cn(Cc2ccccc2)c2cc[n+](C3CCc4ccc(F)cc4C3=O)cc12 (centres unmarked) [AB27470] | 0.93
66 | CC(c1ccccc1)n1cc2cc[n+](C3CCc4ccc(Cl)cc4C3=O)cc2c1 (centres unmarked) [AB27481] | 0.65
67 | Cc1c(Cl)c2c[n+](Cc3ccccc3)ccc2n1CC(=O)c1cccc(OC(F)(F)F)c1 [AB27483] | 2.08
68 | O=C(Cn1c(Cl)cc2c[n+](Cc3ccccc3)ccc21)c1cccc(OC(F)(F)F)c1 [AB27486] | 0.28
69 | O=C(Cn1c(Cl)cc2c[n+](Cc3ccccc3)ccc21)c1cccc(C(F)(F)F)c1 [AB27487] | 0.22
70 | O=C(Cn1c(Br)cc2c[n+](Cc3ccccc3)ccc21)c1cccc(OC(F)(F)F)c1 [AB27489] | 0.17
71 | Cc1c(C)n(CC(=O)c2cccc(OC(F)(F)F)c2)c2cc[n+](Cc3ccccc3)cc12 [AB27492] | 1.21
72 | O=C(Cn1ncc2c[n+](Cc3ccccc3)ccc21)c1cccc(OC(F)(F)F)c1 [AB27498] | 1.96
73 | O=C1c2cc(Cl)ccc2CCC1n1ncc2c[n+](Cc3ccccc3)ccc21 (centres unmarked) [AB27500] | 0.62
74 | O=C1c2cc(Cl)ccc2CCC1n1cnc2c[n+](Cc3ccccc3)ccc21 (centres unmarked) [AB31704] | 0.77
75 | O=C1c2cc(F)ccc2CCC1n1ncc2c[n+](Cc3ccccc3)ccc21 (centres unmarked) [AB31773] | 0.49
76 | O=C1c2cc(C(F)(F)F)ccc2CCC1n1ncc2c[n+](Cc3ccccc3)ccc21 (centres unmarked) [AB31774] | 1.53
77 | O=C1c2cc(OC(F)(F)F)ccc2CCC1n1ncc2c[n+](Cc3ccccc3)ccc21 (centres unmarked) [AB31775] | 1.39
78 | Cc1ccc2c(c1)CCC(n1ncc3c[n+](Cc4ccccc4)ccc31)C2=O (centres unmarked) [AB31777] | 1.23
79 | Nc1cc[n+](CC(=O)c2ccccc2)cc1 [AB36527] | 40.9
80 | Nc1cc[n+](CC(=O)c2ccc(OC(F)(F)F)cc2)cc1 [AB36528] | 17.9

These compounds were tested on mitochondria permeability transition pore (mPTP) (assay: Mitochondria membrane potential difference by TMRM in Daoy cell). Settings: CsA −, H2O2 +, untreated = 100.
Assay type: cell-based, human

Row | Structure (SMILES) | Relative TMRM signal intensity (%), mean value [%]
81 | OO [Compound H2O2, H2O2] | 82

The compounds below were run on mitochondria permeability transition pore (mPTP) (assay: not given). Settings: Daoy cell with empty virus vector; CsA −, H2O2 +; untreated = 100.
Assay type: cell-based, human

Row | Structure (SMILES) | Relative TMRM signal intensity (%), mean value [%]
82 | OO [Compound H2O2, H2O2] | 79

These compounds were tested on mitochondria permeability transition pore (mPTP) (assay: not given). Settings: Daoy cell with PPIF shRNA vector; CsA −, H2O2 +; untreated = 100.

Row | Structure (SMILES) | Relative TMRM signal intensity (%), mean value [%]
83 | OO [Compound H2O2, H2O2] | 95
